{"source": "ChEMBL document CHEMBL6078646", "about": "“Target Ligand Separation and Identification of Isoforsythiaside as a Histone Lysine-Specific Demethylase 1 Covalent Inhibitor Against Breast Cancer Metastasis” (J Med Chem, 2024)", "key": {"[1]": {"target": "T1, Lysine-specific histone demethylase 1A (Homo sapiens, UniProt O60341)", "experiment": "Inhibition of LSD1 in human MDA-MB-231 cells assessed as increase in H3K4me2 accumulation by Western blotting analysis", "assay_type": "cell-based", "details": "dose 0-32 µM"}, "[2]": {"experiment": "Toxicity in female Balb/c mouse assessed as histological changes in heart at 50 mg/kg, ip administered every other day for 7 times by H and E staining based analysis", "assay_type": "organism-based", "details": "in vivo"}, "MDA-MB-231 [3]": {"tested_on": "MDA-MB-231", "experiment": "Antitumor activity against human MDA-MB-231 cells expressing luciferase xenografted in female Balb/c nude mouse assessed as increase in body weight at 12 to 50 mg/kg, ip administered every 3 days and measured after 33 days", "assay_type": "functional, organism-based", "details": "dose 12-50 mg/kg, time 33.0 day"}, "[4]": {"experiment": "Toxicity in female Balb/c mouse assessed as effect on monocytes level at 50 mg/kg, ip administered every other day for 7 times", "assay_type": "organism-based", "details": "in vivo"}, "[5]": {"target": "T1, Lysine-specific histone demethylase 1A", "experiment": "Stabilization of LSD1 in human MDA-MB-231 cells incubated for 24 hrs in presence of cycloheximide by Western blotting analysis", "assay_type": "cell-based"}, "[6]": {"target": "T1, Lysine-specific histone demethylase 1A", "experiment": "Binding affinity to LSD1 (unknown origin) assessed as protection of pronase-dependent degradation at 15 to 75 uM preincubated for 30 mins followed by pronase addition and measured after 30 mins by DARTS assay", "details": "dose 15-75 µM, time 60.0 min"}, "MDA-MB-231 [7]": {"tested_on": "MDA-MB-231", "experiment": "Induction of RBMS3 promoter transcriptional activity in human MDA-MB-231 cells by luciferase reporter gene assay", "assay_type": "functional, cell-based"}, "[8]": {"experiment": "Toxicity in female Balb/c mouse assessed as effect on lymphocyte level at 50 mg/kg, ip administered every other day for 7 times", "assay_type": "organism-based", "details": "in vivo"}, "[9]": {"target": "T1, Lysine-specific histone demethylase 1A", "experiment": "Non-competitive inhibition of LSD1 (unknown origin) in presence of FAD by Lineweaver-Burk plot analysis"}, "Homo sapiens [10]": {"organism": "Homo sapiens", "experiment": "Binding affinity to recombinant LSD1 Ser817A mutant (unknown origin) assessed as thermal stability at 50 uM preincubated for 30 mins followed by incubation under 37 to 52 degreeC for 5 mins by CETSA", "details": "time 35.0 min"}, "[11]": {"experiment": "Acute toxicity in female ICR mouse assessed as lethal dose administered intraperitoneally for 14 days", "details": "in vivo, route ip, time 14 day"}, "[12]": {"experiment": "Toxicity in female Balb/c nude mouse xenografted with human MDA-MB-231 cells expressing luciferase assessed as abnormalities spleen at 12 to 50 mg/kg, ip administered every 3 days and measured after 30 days by H and E staining based analysis", "assay_type": "organism-based", "details": "in vivo, 720 h, dose 12-50 mg/kg, time 30 day"}, "MDA-MB-231 [13]": {"tested_on": "MDA-MB-231", "experiment": "Effect on H3K4me2 protein expression in LSD1 knockout human MDA-MB-231 cells at 16 uM by Western blot analysis", "assay_type": "functional, cell-based"}, "[14]": {"experiment": "Toxicity in female Balb/c nude mouse xenografted with human MDA-MB-231 cells expressing luciferase assessed as appearance of kidney lesions at 12 to 50 mg/kg, ip administered every 3 days and measured after 30 days by H and E staining based analysis", "assay_type": "organism-based", "details": "in vivo, 720 h, dose 12-50 mg/kg, time 30 day"}, "MDA-MB-231 [15]": {"tested_on": "MDA-MB-231", "experiment": "Upregulation of H3K4me2 protein expression in human MDA-MB-231 cells by Western blot analysis", "assay_type": "functional, cell-based", "details": "dose 4-32 µM"}, "MDA-MB-231 [16]": {"tested_on": "MDA-MB-231", "experiment": "Upregulation of RBMS3 protein expression in human MDA-MB-231 cells at 4 to 32 uM by Western blotting analysis", "assay_type": "functional, cell-based", "details": "dose 4-32 µM"}, "MDA-MB-231 [17]": {"tested_on": "MDA-MB-231", "experiment": "Inhibition of Twist1 production in human MDA-MB-231 cells by Western blotting analysis", "assay_type": "functional, cell-based"}, "[18]": {"experiment": "Toxicity in female Balb/c nude mouse xenografted with human MDA-MB-231 cells expressing luciferase assessed as appearance of spleen lesions at 12 to 50 mg/kg, ip administered every 3 days and measured after 30 days by H and E staining based analysis", "assay_type": "organism-based", "details": "in vivo, 720 h, dose 12-50 mg/kg, time 30 day"}, "[19]": {"experiment": "Toxicity in female Balb/c nude mouse xenografted with human MDA-MB-231 cells expressing luciferase assessed as abnormalities kidney at 12 to 50 mg/kg, ip administered every 3 days and measured after 30 days by H and E staining based analysis", "assay_type": "organism-based", "details": "in vivo, 720 h, dose 12-50 mg/kg, time 30 day"}, "[20]": {"experiment": "Toxicity in female Balb/c mouse assessed as effect on LDH level at 50 mg/kg, ip administered every other day for 7 times", "assay_type": "organism-based", "details": "in vivo"}, "[21]": {"target": "T1, Lysine-specific histone demethylase 1A", "experiment": "Binding affinity to LSD1 (unknown origin) assessed as dissociation constant by Microscale thermophoresis assay"}, "[22]": {"experiment": "Toxicity in female Balb/c mouse assessed as effect on creatinine level at 50 mg/kg, ip administered every other day for 7 times", "assay_type": "organism-based", "details": "in vivo"}, "[23]": {"experiment": "Toxicity in female Balb/c nude mouse xenografted with human MDA-MB-231 cells expressing luciferase assessed as abnormalities heart at 12 to 50 mg/kg, ip administered every 3 days and measured after 30 days by H and E staining based analysis", "assay_type": "organism-based", "details": "in vivo, 720 h, dose 12-50 mg/kg, time 30 day"}, "MDA-MB-231 [24]": {"tested_on": "MDA-MB-231", "experiment": "Inhibition of cell invasion in LSD1 knockout human MDA-MB-231 cells at 16 uM incubated for 24 hrs by phase contract microscopy based transwell assay", "assay_type": "functional"}, "MDA-MB-231 [25]": {"tested_on": "MDA-MB-231", "experiment": "Upregulation of H3K4me1 protein expression in human MDA-MB-231 cells by Western blot analysis", "assay_type": "functional, cell-based", "details": "dose 4-32 µM"}, "[26]": {"experiment": "Toxicity in female Balb/c mouse assessed as histological changes in liver at 50 mg/kg, ip administered every other day for 7 times by H and E staining based analysis", "assay_type": "organism-based", "details": "in vivo"}, "Homo sapiens [27]": {"organism": "Homo sapiens", "experiment": "Binding affinity to recombinant LSD1 Ser817A mutant (unknown origin) assessed as protection of pronase-dependent degradation at 15 to 75 uM preincubated for 30 mins followed by pronase addition and measured after 30 mins by DARTS assay", "details": "dose 15-75 µM, time 60.0 min"}, "[28]": {"experiment": "Toxicity in female Balb/c mouse assessed as histological changes in spleen at 50 mg/kg, ip administered every other day for 7 times by H and E staining based analysis", "assay_type": "organism-based", "details": "in vivo"}, "[29]": {"target": "T1, Lysine-specific histone demethylase 1A", "experiment": "Binding affinity to LSD1 (unknown origin) assessed as thermal stability preincubated for 30 mins followed by incubation under 37 to 52 degreeC for 5 mins by CETSA", "details": "time 35.0 min"}, "MDA-MB-231 [30]": {"tested_on": "MDA-MB-231", "experiment": "Inhibition of MMP2 production in human MDA-MB-231 cells by Western blotting analysis", "assay_type": "functional, cell-based", "details": "dose 0-32 µM"}, "MDA-MB-231 [31]": {"tested_on": "MDA-MB-231", "experiment": "Antimetastatic activity against human MDA-MB-231 cells expressing luciferase xenografted in female Balb/c nude mouse assessed as reduction in lung metastasis at 12 to 50 mg/kg, ip administered every 3 days and measured on day 30 by bioluminescence imaging analysis", "assay_type": "functional, organism-based", "details": "dose 12-50 mg/kg, time 30.0 day"}, "[32]": {"experiment": "Tmax in male Sprague-Dawley rat at 10 mg/kg, ip measured at 0 to 1440 mins by LC-MS/MS analysis", "assay_type": "ADME, organism-based", "details": "in vivo, time 0-1440 min"}, "MDA-MB-231 [33]": {"tested_on": "MDA-MB-231", "experiment": "Antimetastatic activity against human MDA-MB-231 cells expressing luciferase xenografted in female Balb/c nude mouse assessed as reduction in number of metastatic nodules in the lung at 25 mg/kg, ip administered every 3 days and measured after 30 days by H and E staining based histopathological analysis relative to control", "assay_type": "functional", "parameters": "scale not given: the % may be the effect or the level left", "details": "time 30 day"}, "MDA-MB-231 [34]": {"tested_on": "MDA-MB-231", "experiment": "Upregulation of RBMS3 mRNA level in human MDA-MB-231 cells by qRT-PCR analysis", "assay_type": "functional, cell-based", "details": "dose 4-32 µM"}, "MDA-MB-231 [35]": {"tested_on": "MDA-MB-231", "experiment": "Inhibition of epithelial to mesenchymal transition in human MDA-MB-231 cells assessed as downregulation of N-cadherin protein expression by Western blotting analysis", "assay_type": "functional, cell-based", "details": "dose 0-32 µM"}, "[36]": {"experiment": "Toxicity in female Balb/c nude mouse xenografted with human MDA-MB-231 cells expressing luciferase assessed as appearance of liver lesions at 12 to 50 mg/kg, ip administered every 3 days and measured after 30 days by H and E staining based analysis", "assay_type": "organism-based", "details": "in vivo, 720 h, dose 12-50 mg/kg, time 30 day"}, "[37]": {"experiment": "Retention time of the compound by HPLC-MS/MS analysis", "assay_type": "physicochemical"}}, "note": "Active and inactive are the calls of the source. No cut-off for these calls is given here."}
{"compound": "C[C@@H]1O[C@H](OC[C@H]2O[C@@H](OCCc3ccc(O)c(O)c3)[C@H](O)[C@@H](OC(=O)/C=C/c3ccc(O)c(O)c3)[C@@H]2O)[C@H](O)[C@H](O)[C@H]1O", "values": [{"measurement": "inhibition", "setting": "[1]", "result": "Dose-dependent-effect"}, {"measurement": "Activity", "setting": "[2]", "result": "Non-toxic"}, {"measurement": "Activity", "setting": "MDA-MB-231 [3]", "result": "Active; Slight Increase In Body Weight Observed"}, {"measurement": "Activity", "setting": "[4]", "result": "Non-toxic"}, {"measurement": "Activity", "setting": "[5]", "result": "Active"}, {"measurement": "Activity", "setting": "[6]", "result": "Active"}, {"measurement": "Activity", "setting": "MDA-MB-231 [7]", "result": "Active"}, {"measurement": "Activity", "setting": "[8]", "result": "Non-toxic"}, {"measurement": "inhibition", "setting": "[9]", "result": "Active"}, {"measurement": "Activity", "setting": "Homo sapiens [10]", "result": "inactive"}, {"measurement": "LD50 at 336 h", "setting": "[11]", "result": "> 600", "unit": "mg/kg"}, {"measurement": "Activity", "setting": "[12]", "result": "Non-toxic"}, {"measurement": "Activity", "setting": "MDA-MB-231 [13]", "result": "inactive"}, {"measurement": "Activity", "setting": "[14]", "result": "Non-toxic"}, {"measurement": "Activity", "setting": "MDA-MB-231 [15]", "result": "Dose-dependent-effect"}, {"measurement": "Activity", "setting": "MDA-MB-231 [16]", "result": "Active"}, {"measurement": "inhibition", "setting": "MDA-MB-231 [17]", "result": "Dose-dependent-effect"}, {"measurement": "Activity", "setting": "[18]", "result": "Non-toxic"}, {"measurement": "Activity", "setting": "[19]", "result": "Non-toxic"}, {"measurement": "Activity", "setting": "[20]", "result": "Non-toxic"}, {"measurement": "Kd", "setting": "[21]", "result": 5.19, "unit": "µM"}, {"measurement": "Activity", "setting": "[22]", "result": "Non-toxic"}, {"measurement": "Activity", "setting": "[23]", "result": "Non-toxic"}, {"measurement": "inhibition", "setting": "MDA-MB-231 [24]", "result": "Active; No Significant Difference With Lsd1 Knockout Control Group"}, {"measurement": "Activity", "setting": "MDA-MB-231 [25]", "result": "Dose-dependent-effect"}, {"measurement": "Activity", "setting": "[26]", "result": "Non-toxic"}, {"measurement": "Activity", "setting": "Homo sapiens [27]", "result": "inactive"}, {"measurement": "Activity", "setting": "[28]", "result": "Non-toxic"}, {"measurement": "Activity", "setting": "[29]", "result": "Active"}, {"measurement": "inhibition", "setting": "MDA-MB-231 [30]", "result": "Dose-dependent-effect"}, {"measurement": "Activity", "setting": "MDA-MB-231 [31]", "result": "Active"}, {"measurement": "Tmax", "setting": "[32]", "result": 1.33, "unit": "h"}, {"measurement": "Activity", "setting": "MDA-MB-231 [33]", "result": 33.3, "unit": "%"}, {"measurement": "Activity", "setting": "MDA-MB-231 [34]", "result": "Dose-dependent-effect"}, {"measurement": "inhibition", "setting": "MDA-MB-231 [35]", "result": "Dose-dependent-effect"}, {"measurement": "Activity", "setting": "[36]", "result": "Non-toxic"}, {"measurement": "Retention_time", "setting": "[37]", "result": 18.4, "unit": "min"}]}
